What was measured:
Assay type in all cases: binding
IgG3 = IgG3 (Homo sapiens, UniProt P01860); design: all human subtypes derived from myeloma patients; purchased Calbiochem 400124; host or cells: myeloma patients; settings: Table 9; immobilized peptide, 5.0 mg/ml resin load
In short: (§1)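 Static binding, peptide resin + IgG, 1-1.5 h RT with shaking, PBST pH 7.2 or TBST pH 7.5. Flow-through read at A280 vs buffer blank; % bound = control minus unbound. Elution at pH 8.5 bicarbonate and/or pH 4.0 citrate, 30-60 min.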

IgG4 = IgG4 (Homo sapiens, UniProt P01861); design: all human subtypes derived from myeloma patients; purchased Calbiochem 400126; host or cells: myeloma patients; settings: Table 9; immobilized peptide, 5.0 mg/ml resin load
In short: (§2)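 Read-out is A280 of unbound IgG (1.4 mg/ml extinction coefficient), with percent bound derived against non-filtered or negative controls. Targets were incubated with immobilized peptides in PBST or TBST for 1-1.5 h at room temperature. Hydrolyzed Sepharose and immobilized Protein A serve as negative and positive controls.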

human IgG2 = target: T1, human IgG2 (Homo sapiens, UniProt P01859); settings: Table 9; immobilized peptide, 5.0 mg/ml resin load
T1 construct: all human subtypes derived from myeloma patients; purchased Calbiochem 400122; host or cells: myeloma patients
In short: as §2

bovine IgG = settings: Table 11; unfractionated IgG
In short: (§3)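 Steps: dilute IgG in PBST or TBST; incubate with immobilized peptide 1-1.5 h, RT; collect unbound by centrifugation; measure A280; wash three times; elute with 0.1 M sodium bicarbonate pH 8.5 and/or 0.1 M sodium citrate pH 4.0 for 30-60 min and quantitate.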

human IgG = settings: Table 11; unfractionated IgG
In short: as §3

human IgG1 = target: T2, human IgG1 (Homo sapiens, UniProt P01857); settings: Table 9; immobilized peptide, 5.0 mg/ml resin load
T2 construct: all human subtypes derived from myeloma patients; purchased Calbiochem 400120; host or cells: myeloma patients
In short: as §1

goat IgG = settings: Table 11; unfractionated IgG
In short: as §3

mouse IgG = settings: Table 11; unfractionated IgG
In short: as §3

Sequence of IgG4 (P01861 1-327 isoform P01861-1): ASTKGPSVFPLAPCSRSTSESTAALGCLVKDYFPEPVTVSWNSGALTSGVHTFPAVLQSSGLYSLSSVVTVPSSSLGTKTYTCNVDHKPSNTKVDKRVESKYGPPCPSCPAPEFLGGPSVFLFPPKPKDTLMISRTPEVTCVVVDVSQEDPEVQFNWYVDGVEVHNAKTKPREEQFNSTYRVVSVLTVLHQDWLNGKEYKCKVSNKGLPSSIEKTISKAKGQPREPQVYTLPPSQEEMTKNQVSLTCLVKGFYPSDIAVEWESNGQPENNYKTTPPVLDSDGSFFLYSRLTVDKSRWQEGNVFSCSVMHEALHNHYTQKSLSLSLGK
Sequence of IgG3 (P01860 1-377 isoform P01860-1): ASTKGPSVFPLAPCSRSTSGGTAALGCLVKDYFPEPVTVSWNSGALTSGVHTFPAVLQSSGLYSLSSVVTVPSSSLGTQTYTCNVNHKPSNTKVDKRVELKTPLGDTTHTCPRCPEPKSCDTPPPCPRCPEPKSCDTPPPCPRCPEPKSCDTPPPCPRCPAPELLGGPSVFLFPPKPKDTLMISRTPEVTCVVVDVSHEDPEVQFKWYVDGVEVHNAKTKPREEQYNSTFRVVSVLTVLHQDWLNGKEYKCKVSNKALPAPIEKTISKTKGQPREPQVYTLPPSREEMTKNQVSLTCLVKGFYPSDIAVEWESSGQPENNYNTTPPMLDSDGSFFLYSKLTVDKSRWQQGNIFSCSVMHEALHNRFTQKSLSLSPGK
T2 sequence (P01857 1-330 isoform P01857-1): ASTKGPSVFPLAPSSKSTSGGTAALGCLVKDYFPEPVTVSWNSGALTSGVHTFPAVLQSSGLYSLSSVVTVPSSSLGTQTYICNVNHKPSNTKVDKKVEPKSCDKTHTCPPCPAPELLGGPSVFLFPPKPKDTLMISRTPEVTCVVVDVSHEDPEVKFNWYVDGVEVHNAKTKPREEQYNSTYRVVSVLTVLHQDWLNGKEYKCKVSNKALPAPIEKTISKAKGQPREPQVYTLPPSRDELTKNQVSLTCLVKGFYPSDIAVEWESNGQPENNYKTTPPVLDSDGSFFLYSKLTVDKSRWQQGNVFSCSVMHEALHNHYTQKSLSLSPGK
T1 sequence (P01859 1-326 isoform P01859-1): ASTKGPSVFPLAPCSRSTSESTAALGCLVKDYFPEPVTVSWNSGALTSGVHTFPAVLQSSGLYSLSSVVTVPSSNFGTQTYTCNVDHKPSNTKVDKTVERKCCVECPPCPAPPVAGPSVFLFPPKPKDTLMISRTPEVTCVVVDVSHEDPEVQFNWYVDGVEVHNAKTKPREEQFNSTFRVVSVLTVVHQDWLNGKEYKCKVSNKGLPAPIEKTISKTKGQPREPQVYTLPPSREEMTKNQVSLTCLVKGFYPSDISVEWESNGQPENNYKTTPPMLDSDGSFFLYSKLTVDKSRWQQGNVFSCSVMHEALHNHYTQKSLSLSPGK

% IgG Capture - Batch Binding, Human IgG3 (IgG3): 79%
% IgG Capture - Batch Binding, Human IgG4 (IgG4): 2%
% IgG Capture - Batch Binding, Human IgG2 (human IgG2): 0%
% IgG Capture - Batch Binding, Bovine IgG (bovine IgG): 2%
% IgG Capture - Batch Binding, Human IgG (human IgG): 9%
% IgG Capture - Batch Binding, Human IgG1 (human IgG1): 6%
% IgG Capture - Batch Binding, Goat IgG (goat IgG): 0%
% IgG Capture - Batch Binding, Mouse IgG (mouse IgG): 4%
Compound: CC(=O)N[C@@H](C)C(=O)NCC(=O)N[C@@H](C)C(=O)N[C@@H](C)C(=O)N[C@H](C(=O)N[C@H]1CSSC[C@@H](C(=O)N[C@H](C(=O)N[C@@H](CC(=O)O)C(=O)N[C@@H](CO)C(=O)N2CCC[C@H]2C(=O)NCC(=O)N2CCC[C@H]2C(=O)N[C@@H](CCC(=O)O)C(=O)NCC(=O)NCC(=O)NCC(=O)N[C@@H](CCCCN)C(N)=O)[C@@H](C)O)NC(=O)[C@H](Cc2ccccc2)NC(=O)[C@H](Cc2c[nH]c3ccccc23)NC(=O)[C@H](CCC(N)=O)NC(=O)[C@H](Cc2ccc(O)cc2)NC(=O)[C@H](Cc2ccc(O)cc2)NC(=O)[C@H](Cc2c[nH]c3ccccc23)NC(=O)[C@H](Cc2ccc(O)cc2)NC(=O)[C@H](CO)NC(=O)[C@H]([C@@H](C)O)NC(=O)[C@H](CO)NC1=O)[C@@H](C)O [DX398]
